Experimental data as given in patent US11332485B2, “Penicillin-binding protein inhibitors” (priority 2017, dated 2022).

How the values were obtained:
[1] = test system: E. coli DH5α/pLBII-CTX-M15; test: Broth microdilution MIC assay, engineered strain producing CTX-M15; assay type: cell-based, Escherichia coli; conditions: Escherichia coli, read-out: E. coli DH5α/pLBII-CTX-M15 Microbiological Activity (MIC)
Method: (§1) To determine the ability of test compounds to potentiate the inhibition of the growth of bacterial strains, classic cell based broth microdilution MIC assays were employed. MIC assays are performed according to CLSI methods except where otherwise noted (CLSI, 2011 and CLSI, 2009). The reference strain S. aureus ATCC 29213 and the hyper-permeable E. coli 901C were used to determine the ability of the PBP compounds to inhibit bacterial growth. Briefly, cryo-preserved bacterial cultures of clinical strains are streaked for isolation on appropriate agar medium, in this case Mueller Hinton II agar. Following incubation to allow formation of colonies these plates are sealed with parafilm and stored refrigerated for up to two weeks. For preparation of assay inocula and to ensure low variability, at least 5 colonies are picked from the agar plates with an inoculating loop and aseptically transferred to a culture tube containing 3 mL of Mueller-Hinton Broth (supplemented with divalent cations to required levels based on Manufacturers' certification). The broth culture is grown for 3-5 hours at 37° C. with shaking at 200 rpm. Meanwhile, 2-fold serial dilutions of test compounds are conducted in a 96 well plate with a final volume of 75 μL per well at 2-fold the final desired concentration. After the dilution plates are set up the growing cultures are then diluted in a cuvette containing MH II broth and the optical density is measured at 600 nm. Inocula are diluted such that 75 μL of this culture in Mueller-Hinton Broth results in a starting bacterial concentration of 5×10^5 CFU/mL when added to the dilution plates. The plates are incubated 16-20 hours at 37° C. The MIC is read visually as the lowest concentration well with no bacterial growth.
(§2) To determine if test compounds were affected by CTX-M15, the most abundant extended spectrum β-lactamase in clinical settings worldwide, the inhibition of the growth of an engineered strain of Escherichia coli harboring CTX-M15 was tested. This strain was constructed by cloning the gene encoding CTX-M15 into the NdeI and BamHI restriction endonuclease sites of plasmid pLBII, placing the gene(s) under the control of the Lac promoter. The constructed expression plasmid for CTX-M15 was used to transform competent E. coli DH5a cells to make the engineered strain, including an empty pLBII vector control strain. The classic cell based broth microdilution MIC assay was employed as described above with the addition of control antibiotics, known to be degraded by β-lactamases (Ceftazidime, piperacillin and piperacillin+tazobactam).

[2] = test system: S. aureus ATCC 29213; test: Broth microdilution MIC assay; assay type: cell-based; conditions: Staphylococcus aureus, ATCC29213; broth microdilution, 16-20 hours at 37° C.; read-out: S. aureus 29213 MIC
Method: as §1

[3] = test system: hyper-permeable E. coli 901C; test: Broth microdilution MIC assay; assay type: cell-based; conditions: Escherichia coli, read-out: E. coli 901C MIC
Method: as §1

[4] = test system: E. coli DH5α/pLBII; test: Broth microdilution MIC assay, empty vector control strain; assay type: cell-based; conditions: Escherichia coli, read-out: E. coli DH5α/pLBII Microbiological Activity (MIC)
Method: as §1, §2

SMILES | MIC [1] [mg/L] | MIC [2] [mg/L] | MIC [3] [mg/L] | MIC [4] [mg/L]
Nc1nc(C(NC(=O)N2CCOCC2)C(=O)N[C@H]2Cc3cccc(C(=O)O)c3OB2O)cs1 (stereo partly drawn) [Example 18, (3R)-3-(2-(2-aminothiazol-4-yl)-2-(morpholine-4-carboxamido)acetamido)-2-hydroxy-3,4-dihydro-2H-benzo[e][1,2]oxaborinine-8-carboxylic acid] | 128 to 256 | > 128 | < 64 | 128 to 256
Nc1nc(C(NC(=O)C2CCCC(=O)N2)C(=O)N[C@H]2Cc3cccc(C(=O)O)c3OB2O)cs1 (stereo partly drawn) [Example 68, (3R)-3-(2-(2-aminothiazol-4-yl)-2-(6-oxopiperidine-2-carboxamido)acetamido)-2-hydroxy-3,4-dihydro-2H-benzo[e][1,2]oxaborinine-8-carboxylic acid] | 128 to 256 | > 128 | < 64 | 128 to 256
Nc1nc(C(NC(=O)N2CCN(CC(F)F)C(=O)C2=O)C(=O)N[C@H]2Cc3cccc(C(=O)O)c3OB2O)cs1 (stereo partly drawn) [Example 69, (3R)-3-(2-(2-aminothiazol-4-yl)-2-(4-(2,2-difluoroethyl)-2,3-dioxopiperazine-1-carboxamido)acetamido)-2-hydroxy-3,4-dihydro-2H-benzo[e][1,2]oxaborinine-8-carboxylic acid] | 8 to 16 | 64 to 128 | < 64 | 8 to 16
N[C@H](Cc1ccccc1)C(=O)N[C@H]1Cc2cccc(C(=O)O)c2OB1O [Example 1, (R)-3-((R)-2-amino-3-phenylpropanamido)-2-hydroxy-3,4-dihydro-2H-benzo[e][1,2]oxaborinine-8-carboxylic acid] | > 512 | > 128 | > 128 | > 512
COc1ccc([C@@H](N)C(=O)N[C@H]2Cc3cccc(C(=O)O)c3OB2O)cc1 [Example 4, (R)-3-((R)-2-amino-2-(4-methoxyphenyl)acetamido)-2-hydroxy-3,4-dihydro-2H-benzo[e][1,2]oxaborinine-8-carboxylic acid] | > 512 | > 128 | > 128 | > 512
Nc1nc(C(NC(=O)c2nccs2)C(=O)N[C@H]2Cc3cccc(C(=O)O)c3OB2O)cs1 (stereo partly drawn) [Example 15, (3R)-3-(2-(2-aminothiazol-4-yl)-2-(thiazole-2-carboxamido)acetamido)-2-hydroxy-3,4-dihydro-2H-benzo[e][1,2]oxaborinine-8-carboxylic acid] | 128 to 256 | < 64 | < 64 | 128 to 256
CCN1CCN(C(=O)NC(C(=O)N[C@@H]2Cc3cccc(C(=O)O)c3OB2O)c2csc(N)n2)C(=O)C1=O (stereo partly drawn) [Example 33, (3S)-3-(2-(2-aminothiazol-4-yl)-2-(4-ethyl-2,3-dioxopiperazine-1-carboxamido)acetamido)-2-hydroxy-3,4-dihydro-2H-benzo[e][1,2]oxaborinine-8-carboxylic acid] | 128 to 256 | > 128 | < 64 | 128 to 256
CCCN1CCN(C(=O)NC(C(=O)N[C@H]2Cc3cccc(C(=O)O)c3OB2O)c2csc(NC(=O)OCc3ccccc3)n2)C(=O)C1=O (stereo partly drawn) [Example 56, (3R)-3-(2-(2-(((benzyloxy)carbonyl)amino)thiazol-4-yl)-2-(2,3-dioxo-4-propylpiperazine-1-carboxamido)acetamido)-2-hydroxy-3,4-dihydro-2H-benzo[e][1,2]oxaborinine-8-carboxylic acid] | > 512 | 64 to 128 | < 64 | > 512
COc1cc(C(=O)NC(C(=O)N[C@H]2Cc3cccc(C(=O)O)c3OB2O)c2csc(N)n2)ccn1 (stereo partly drawn) [Example 41, (3R)-3-(2-(2-aminothiazol-4-yl)-2-(2-methoxyisonicotinamido)acetamido)-2-hydroxy-3,4-dihydro-2H-benzo[e][1,2]oxaborinine-8-carboxylic acid] | > 512 | 64 to 128 | < 64 | > 512
COc1ccc(C(=O)NC(C(=O)N[C@H]2Cc3cccc(C(=O)O)c3OB2O)c2csc(N)n2)c(=O)[nH]1 (stereo partly drawn) [Example 46, (3R)-3-(2-(2-aminothiazol-4-yl)-2-(6-methoxy-2-oxo-1,2-dihydropyridine-3-carboxamido)acetamido)-2-hydroxy-3,4-dihydro-2H-benzo[e][1,2]oxaborinine-8-carboxylic acid] | 128 to 256 | > 128 | < 64 | 128 to 256
CCCN1CCN(C(=O)NC(C(=O)N[C@H]2Cc3cccc(C(=O)O)c3OB2O)c2csc(N)n2)C(=O)C1=O (stereo partly drawn) [Example 51, (3R)-3-(2-(2-aminothiazol-4-yl)-2-(2,3-dioxo-4-propylpiperazine-1-carboxamido)acetamido)-2-hydroxy-3,4-dihydro-2H-benzo[e][1,2]oxaborinine-8-carboxylic acid] | 8 to 16 | 64 to 128 | < 64 | 8 to 16
Nc1nc(C(NC(=O)CO)C(=O)N[C@H]2Cc3cccc(C(=O)O)c3OB2O)cs1 (stereo partly drawn) [Example 29, (3R)-3-(2-(2-aminothiazol-4-yl)-2-(2-hydroxyacetamido)acetamido)-2-hydroxy-3,4-dihydro-2H-benzo[e][1,2]oxaborinine-8-carboxylic acid] | 32 to 64 | > 128 | < 64 | 32 to 64
COC(=O)C(=O)NC(C(=O)N[C@H]1Cc2cccc(C(=O)O)c2OB1O)c1csc(N)n1 (stereo partly drawn) [Example 28, (3R)-3-(2-(2-aminothiazol-4-yl)-2-(2-methoxy-2-oxoacetamido)acetamido)-2-hydroxy-3,4-dihydro-2H-benzo[e][1,2]oxaborinine-8-carboxylic acid] | 32 to 64 | > 128 | < 64 | 32 to 64
Nc1nc([C@H](N)C(=O)N[C@H]2Cc3cccc(C(=O)O)c3OB2O)cs1 [Example 9, (R)-3-((S)-2-amino-2-(2-aminothiazol-4-yl)acetamido)-2-hydroxy-3,4-dihydro-2H-benzo[e][1,2]oxaborinine-8-carboxylic acid] | 128 to 256 | > 128 | > 128 | 128 to 256
CCNC(=O)NC(C(=O)N[C@H]1Cc2cccc(C(=O)O)c2OB1O)c1csc(N)n1 (stereo partly drawn) [Example 25, (3R)-3-(2-(2-aminothiazol-4-yl)-2-(3-ethylureido)acetamido)-2-hydroxy-3,4-dihydro-2H-benzo[e][1,2]oxaborinine-8-carboxylic acid] | 32 to 64 | > 128 | < 64 | 32 to 64
CCN1C(=O)CN(C(=O)NC(C(=O)N[C@H]2Cc3cccc(C(=O)O)c3OB2O)c2csc(N)n2)CC1=O (stereo partly drawn) [Example 64, (3R)-3-(2-(2-aminothiazol-4-yl)-2-(4-ethyl-3,5-dioxopiperazine-1-carboxamido)acetamido)-2-hydroxy-3,4-dihydro-2H-benzo[e][1,2]oxaborinine-8-carboxylic acid] | 128 to 256 | > 128 | < 64 | 128 to 256
CN(C)C(=O)NC(C(=O)N[C@H]1Cc2cccc(C(=O)O)c2OB1O)c1csc(N)n1 (stereo partly drawn) [Example 14, (3R)-3-(2-(2-aminothiazol-4-yl)-2-(3,3-dimethylureido)acetamido)-2-hydroxy-3,4-dihydro-2H-benzo[e][1,2]oxaborinine-8-carboxylic acid] | 128 to 256 | > 128 | < 64 | 128 to 256
